This is an account of results in patent publication US20110082091A1, “Method for Preclinical Testing of Immunomodulatory Drugs” (TheraMAB GmbH, priority 2009, published 2011).

“Also recorded” adds a separate entry of the source.

Data set [1] relates to human PBMCs. Briefly: Cytokine release from freshly isolated PBMCs (standard culture), cytokine bead array. The format is cell-based. As to conditions: fresh PBMCs, 10^6/ml, mAb 1 μg/ml, 24 hours. An excerpt:
For the induction of cytokine release, the present invention as well as this comparative example uses a system of PBMC stimulation as described below to study the response of human PBMCs to immune-modulating agents. This system employs freshly prepared PBMCs, isolated from heparinized venous blood by centrifugation over a density gradient (Lymphocyte Separation Medium LSM 1077, PAA Laboratories, Pasching, Germany) following the manufacturer's instructions. […]
In this tissue culture system, freshly isolated PBMCs were stimulated with soluble TGN1412 provided by TheraMab GmbH, Wurzburg. […] After 24 hours, a panel of cytokines including the major pro- and anti-inflammatory factors detected in plasma of the volunteers of the TGN1412 trial (Suntharalingam et al., 2006) were analyzed by the cytokine-bead-array (CBA) technology (Becton Dickinson, Mountain View, Calif., USA) following the manufacturer's instructions. […]
PBMCs from a healthy donor were isolated by Ficoll density centrifugation and cultured in 0.2 ml RPMI1640 medium supplemented with 10% AB serum for 24 hours at 10^6/ml in 96 well flat bottom tissue culture plates. Cytokines in the supernatants were analyzed after 24 hours of incubation by cytokine bead array. […]

Data set [2] deals with human PBMCs. Briefly: Cytokine release from precultured PBMCs restimulated at 10^6/ml, cytokine bead array. The following applies: high-density precultured PBMCs, mAb 1 μg/ml, OKT3 compared with TGN1412. The format is cell-based. The method, then: For the experiment in FIG. 1B PBMCs from a healthy donor were cultured in 1.5 ml medium for 2 days at 10^7/ml in 24 well flat bottom tissue culture plates before being washed and readjusted to 10^6/ml. With these cells, the same experiment was performed as described in Example 1.
For the experiment of FIG. 3 PBMCs were cultured at 10^6/ml (left bars) or at 10^7/ml (right bars) for 2 days before being stimulated by TGN1412 at 10^6/ml as described in FIG. 1.
For the experiment of FIG. 4 fresh PBMCs (left bars of triplets), and PBMCs precultured at 10^7/ml for 24 (middle bars of triplets) or 48 hours (right bars of triplets) were stimulated with OKT3 or TGN1412 for 24 hours under the conditions given in FIG. 1.
For the experiment of FIG. 5 PBMCs were cultured for two days at high density (10^7/ml, right bars of triplets) or at low density (10^6/ml, left and middle bars of triplets) in 1.5 ml cultures. In the group shown as middle bars of triplets, these low density cultures additionally contained an insert with a semipermeable membrane on which additional PBMCs were cultured at high-density (10^6/ml below membrane, 10^7/ml above membrane, middle bars of triplets).
Cell density. […]
High-density precultured PBMCs were prepared as in FIG. 1B and stimulated with 1 μg/ml of OKT3 or TGN1412. Supernatants were harvested at the times indicated and TNF content was analysed as in FIG. 1.

The test system of data set [3] is human PBMCs. Briefly: PBMC proliferation, 3H-thymidine incorporation. As to conditions: 3H-thymidine on day 3, 16 hours. Type of data set: cell-based. The method, then:
Fresh and precultured PBMCs were prepared and cultured as described for FIGS. 1 A and B, respectively. On day 3, 1 μCi of 3H-thymidine was added, and cultures were harvested 16 hours later and processed for liquid scintillation counting. Besides cytokine release, polyclonal T-cell activation results in proliferation which can be measured as radioactivity incorporated, here incorporated as tritiated thymidine. […] Thus, proliferation can also be used as a readout.
In general terms: Incorporation of labelled thymidine or its analogues reports DNA synthesis.

Data set [4] deals with CD4 T-cells in PBMCs. Briefly: Intracellular TNF / IFN-gamma staining of CD4 T-cell subsets (flow cytometry, brefeldin A). The format is cell-based, human. As to conditions: mAb 1 μg/ml, 18 hours, brefeldin A last 4 hours; CD45RO+ vs CD45RO- CD4 T-cells. As for the experimental part: 2 day high-density precultured PBMCs were stimulated for 18 hours with 1 μg/ml of OKT3 or of TGN1412. Instead of 18 hours stimulation for a period of time between 15 to 20 hours, preferably 16 to 18 hours, is generally possible. During the last 4 hours of culture, 5 μg/ml of brefeldin A was added to block cellular export of cytokines. After cell-surface staining with fluorochome-conjugated mAb to CD4 and CD45RO (memory marker), cells were fixed, permeabilized and stained with mAb to TNF—left panels—or IFNgamma—right panels—(all from BD Pharmingen, Mountain View, Calif., USA)
15.000 live-gated events were acquired on a BD Calibur flow cytometer and data were analyzed using FlowJo software (Three Star Inc., Ashland, Oreg., USA). The cytokine storm elicited by OKT3 in patients is a well-known phenomenon, and the accompanying information provided with this drug (Muromonomab, Janssen-CILAG) explicitly warns against this syndrome. […] In parallel, the cell surface phenotype of the stimulated PBMCs was determined. The main cytokine-producing T-cell subset, the CD4 T-cells, were thus identified and further subdivided into naive (CD45R0−) and memory (CD45RO+) subsets.
For orientation: Flow cytometry measures light scatter and fluorescence of single cells or particles in a stream.

Data set [5] deals with patients. As to conditions: patients receiving mAb therapy; cited from earlier work.
The test system of data set [6] is PBMCs. Type of data set: cell-based, human.
The subject of data set [7] is PBMCs. The format is cell-based, human. The source holds these as a separate data set.

As to “OKT3: CD3-specific mAb addressing the T-cell antigen receptor, clinical-grade, Janssen-Cilag”, in data set [1], the “cytokine release (TNF, IFN-gamma, IL-2, IL-10)” value was “highly effective in inducing TNF, IFN-gamma, and IL-2; also recorded: ability”. In addition, the “kinetics of TNF release” value in data set [2] is “follows the same kinetics”. Also, the proliferation result in data set [3] (2 day high-density precultured PBMCs) was “stimulated the proliferation of both, fresh and precultured PBMCs”; in data set [3] (fresh PBMCs), “stimulated the proliferation of both, fresh and precultured PBMCs”. In data set [4], the “cellular source of TNF and IFN-gamma production” value is given as “predominantly in the CD4 memory subset”. Moreover, in data set [5], the systemic cytokine release entry is recorded as “induce the systemic release of proinflammatory cytokines”.
Take Staphylococcal Enterotoxin B: the proliferative response entry in data set [6] is reported as “strongly enhances the sensitivity of this assay”.
Take concanavalin A [ConA]: the “proliferative T-cell response” value in data set [7] is reported as “strongly enhanced”.
Still for that read-out and setting: next, phytohemagglutinin [PHA]: “strongly enhanced”.
